Measured values as given in patent US5866569A, “Naphthalenedione nitric oxide synthase (NOS) inhibitors” (Ontogen Corporation, priority 1997, dated 1999).

Columns and labels:
[1] = molecular target: nNOS (Homo sapiens, UniProt P29475); experiment: Nitric oxide synthase activity assay, nNOS; format: biochemical
[2] = molecular target: T1, iNOS (Mus musculus, UniProt P29477); experiment: Nitric oxide synthase activity assay (Griess reagent), iNOS partially purified from interferon-γ/LPS stimulated RAW 264.7 cells; format: biochemical; settings: for IC50: 90 minutes at 37° C
T1 construct: iNOS was isolated from interferon-γ and lipopolysaacharide(LPS) stimulated mouse macrophage cells (RAW 264.7 cells); endogenous in cells; host or cells: RAW 264.7 mouse macrophage cells, induced overnight with interferon-γ and LPS; lysate partially purified on ADP sepharose

Sequence of nNOS (P29475 whole entry): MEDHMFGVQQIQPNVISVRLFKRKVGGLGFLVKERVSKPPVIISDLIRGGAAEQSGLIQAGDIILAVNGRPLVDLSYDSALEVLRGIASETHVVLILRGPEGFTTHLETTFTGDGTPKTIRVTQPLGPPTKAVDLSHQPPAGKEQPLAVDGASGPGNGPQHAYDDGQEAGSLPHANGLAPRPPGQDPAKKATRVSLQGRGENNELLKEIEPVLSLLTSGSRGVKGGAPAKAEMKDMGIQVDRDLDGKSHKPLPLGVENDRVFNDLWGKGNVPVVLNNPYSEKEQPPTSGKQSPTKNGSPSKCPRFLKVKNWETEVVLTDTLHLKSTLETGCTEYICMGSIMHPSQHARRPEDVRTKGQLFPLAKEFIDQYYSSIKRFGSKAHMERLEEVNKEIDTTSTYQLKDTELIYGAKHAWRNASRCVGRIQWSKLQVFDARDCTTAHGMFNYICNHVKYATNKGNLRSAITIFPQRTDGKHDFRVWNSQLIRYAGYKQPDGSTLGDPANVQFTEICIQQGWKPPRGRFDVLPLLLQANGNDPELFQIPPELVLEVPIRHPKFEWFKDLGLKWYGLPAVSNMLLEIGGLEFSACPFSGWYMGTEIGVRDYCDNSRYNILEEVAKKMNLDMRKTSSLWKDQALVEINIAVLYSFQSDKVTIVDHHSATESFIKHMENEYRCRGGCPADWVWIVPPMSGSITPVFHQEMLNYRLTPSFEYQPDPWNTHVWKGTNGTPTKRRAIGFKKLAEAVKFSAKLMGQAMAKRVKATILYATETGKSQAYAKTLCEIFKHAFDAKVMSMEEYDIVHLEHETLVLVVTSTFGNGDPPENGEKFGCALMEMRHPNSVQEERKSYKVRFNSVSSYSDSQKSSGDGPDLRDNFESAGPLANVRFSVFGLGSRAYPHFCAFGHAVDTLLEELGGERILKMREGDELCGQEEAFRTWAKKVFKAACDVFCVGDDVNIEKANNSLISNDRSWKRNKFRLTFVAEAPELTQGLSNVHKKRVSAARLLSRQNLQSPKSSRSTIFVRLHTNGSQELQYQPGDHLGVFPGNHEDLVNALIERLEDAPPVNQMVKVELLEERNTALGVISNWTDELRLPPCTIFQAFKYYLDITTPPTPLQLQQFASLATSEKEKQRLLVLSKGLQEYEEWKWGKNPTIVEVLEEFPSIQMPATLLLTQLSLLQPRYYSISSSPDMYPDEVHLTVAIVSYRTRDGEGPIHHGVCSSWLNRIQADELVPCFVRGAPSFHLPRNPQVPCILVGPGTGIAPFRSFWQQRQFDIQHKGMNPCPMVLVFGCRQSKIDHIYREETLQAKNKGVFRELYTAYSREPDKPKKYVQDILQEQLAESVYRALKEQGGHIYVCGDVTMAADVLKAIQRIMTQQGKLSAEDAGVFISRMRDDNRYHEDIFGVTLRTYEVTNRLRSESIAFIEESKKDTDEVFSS

Structure (SMILES)	IC50 [1] [µM]	IC50 [2] [µM]	inhibition at 10 µM ([2]; @ 10 μM, read-out: Percentage Inhibition iNOS) [%]
O=C1C=C(NCCN2CCOCC2)c2ccccc2C1=O [Example 4]	–	45	–
O=C1C=C(N2CCc3ccccc32)c2ccccc2C1=O [Example 9]	–	17	–
CC(C)(C)OC(=O)NCCNC1=CC(=O)C(=O)c2ccccc21 [Example 15]	1.1	3.8	–
O=C1C=C(Nc2ccccc2)c2ccccc2C1=O [Example 1]	–	27	–
O=C1C=C(N2CCNCC2)c2ccccc2C1=O [Example 12]	2.1	9.9	–
O=C1C=C(N2CCCc3ccccc32)c2ccccc2C1=O [Example 8]	–	13	–
O=C1C=C(NCCCn2ccnc2)c2ccccc2C1=O [Example 3]	–	41	–
O=C1C=C(c2ccc[nH]2)c2ccccc2C1=O [Example 14]	–	7.4	–
CCN1CCN(C2=CC(=O)C(=O)c3ccccc32)CC1 [Example 7]	–	8	–
CCN(C1=CC(=O)C(=O)c2ccccc21)c1ccccc1 [Example 2]	–	16	–
CN1CCN(C2=CC(=O)C(=O)c3ccccc32)CC1 [Example 6]	2	5.4	–
O=C1C=C(N2CCNCC2)c2cc(O)ccc2C1=O [Example 11]	–	–	34
O=C1C=C(n2cncn2)c2ccccc2C1=O [Example 13]	–	7.8	–
CC1CCCCN1CCCNC1=CC(=O)C(=O)c2ccccc21 (stereo not shown) [Example 5]	–	12	–
COC(=O)[C@@H]1CCCN1C1=CC(=O)C(=O)c2ccccc21 [Example 10]	–	44	–

Other lines, results leading:

IC50 [1] [µM]	IC50 [2] [µM]	inhibition at 10 µM ([2]; @ 10 μM, read-out: Percentage Inhibition iNOS) [%]	Structure (SMILES)
0.57	0.67	–	N=C(N)N1CCN(C2=CC(=O)C(=O)c3ccccc32)CC1 [Example 20]
2.1	2.2	–	O=C1C=C(N2CCN(C(=O)NCc3ccccc3)CC2)c2ccccc2C1=O [Example 19]
–	5.4	–	CC(=O)N1CCN(C2=CC(=O)C(=O)c3ccccc32)CC1 [Example 17]
0.27	2.3	–	O=C1C(=O)c2c(nc3ccccn23)-c2ccccc21 [Example 24]
1.9	15.6	–	COC(=O)[C@H](CCC(=O)N1CCN(C2=CC(=O)C(=O)c3ccccc32)CC1)NC(=O)OCC1c2ccccc2-c2ccccc21 [Example 21]
3.2	11.2	–	NCCNC1=CC(=O)C(=O)c2ccccc21 [Example 16]
1.2	6.2	–	O=C1C=C(N2CCN(C(=O)c3ccc([N+](=O)[O-])cc3)CC2)c2ccccc2C1=O [Example 18]
